Laboratory results: patent US20260176267A1, “PREPARATION OF IMIDAZOPYRIDINE AND IMIDAZOPYRIDAZINE DERIVATIVES AS NOVEL DIACYLGLYCERIDE O-ACYLTRANSFERASE 2 INHIBITORS” (Merck Sharp & Dohme LLC, priority 2022, published 2026)

These compounds were tested against T1, human DGAT2 (hDGAT2) (Homo sapiens, UniProt Q96PD7) (assay: DGAT2 Enzymatic Activity Assay). Details: membrane prep of Sf-9 cells expressing hDGAT2; 13C18-triolein product by LC/MS/MS; 25 μM diolein, 5 μM 13C oleoyl-CoA, rt.
T1 construct: made in house; host or cells: Sf-9 insect cells (baculovirus), membrane fraction
T1 sequence (Q96PD7 1-388): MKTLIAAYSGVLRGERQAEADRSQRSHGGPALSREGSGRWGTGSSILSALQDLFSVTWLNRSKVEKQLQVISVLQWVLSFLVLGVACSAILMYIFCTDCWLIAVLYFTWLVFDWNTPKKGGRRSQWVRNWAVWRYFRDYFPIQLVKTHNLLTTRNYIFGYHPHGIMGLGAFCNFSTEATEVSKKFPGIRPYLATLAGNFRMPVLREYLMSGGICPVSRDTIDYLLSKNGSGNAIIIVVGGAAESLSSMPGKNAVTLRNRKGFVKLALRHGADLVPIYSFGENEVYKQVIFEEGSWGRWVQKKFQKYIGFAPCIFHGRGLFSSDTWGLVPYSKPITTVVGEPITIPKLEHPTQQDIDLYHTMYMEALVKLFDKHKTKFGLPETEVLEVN
Format: biochemical
In short: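 Membranes from Sf-9 cells expressing untagged human DGAT2 (baculovirus, 48 h) used as enzyme at rt. The product ^13C18-triolein is quantified by LC/MS/MS against a ^13C21-triolein internal standard. Percent inhibition is taken from high and low controls, and IC50 is derived.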
In the case of `Cc1cc2nc(C(=O)NC3(C)CCS(=O)(=O)CC3)cn2cc1Oc1ncc(F)cc1OCC(F)(F)F` [Example 29, 6-[[5-fluoro-3-(2,2,2-trifluoroethoxy)-2-pyridyl]oxy]-7-methyl-N-(4-methyl-1,1-dioxo-thian-4-yl)imidazo[1,2-a]pyridine-2-carboxamide], the IC50 is reported as 13 nM. Work on `CCOCC(C)(C)COc1ccc2nc(C(=O)NC3(C)CCS(=O)(=O)CC3)c(C)n2c1` [Example 129, 6-(3-ethoxy-2,2-dimethyl-propoxy)-3-methyl-N-(4-methyl-1,1-dioxo-thian-4-yl)imidazo[1,2-a]pyridine-2-carboxamide] yielded an IC50 of 161 nM. `Cc1c(C(=O)N[C@]2(C)CCS(=O)(=O)C2)nc2ccc(Oc3ncc(F)cc3OCC(F)(F)F)cn12` [Example 101] showed an IC50 of 88 nM. Compound `Cc1c(C(=O)NC2(C)CS(=O)(=O)C2)nc2ccc(Oc3ncc(N(C)C)cc3OCC(F)(F)F)cn12` [Example 152, 6-[5-(dimethylamino)-3-(2,2,2-trifluoroethoxy)pyridine-2-yl]oxy-3-methyl-N-(3-methyl-1,1-dioxo-thietan-3-yl)imidazo[1,2-a]pyridin-1-ium-2-carboxamide] has an IC50 of 63 nM. `CC1(NC(=O)c2cn3nc(Oc4ncc(F)cc4OCC(F)F)ccc3n2)CCS(=O)(=O)CC1` [Example 160, 6-[[3-(2,2-Difluoroethoxy)-5-fluoro-2-pyridyl]oxy]-N-(4-methyl-1,1-dioxo-thian-4-yl)imidazo[1,2-b]pyridazine-2-carboxamide] gave an IC50 of 3.9 nM. `Cc1ccnc(Oc2ccc3nc(C(=O)NC4(C)CCS(=O)(=O)CC4)c(C)n3c2)c1OCC(F)(F)F` [Example 107, 3-methyl-N-(4-methyl-1,1-dioxo-thian-4-yl)-6-[[4-methyl-3-(2,2,2-trifluoroethoxy)-2-pyridyl]oxy]imidazo[1,2-a]pyridine-2-carboxamide] was tested, and the IC50 was 634 nM. `Cc1c(C(=O)NC2(C)CS(=O)(=O)C2)nc2ccc(Oc3ncc(F)cc3OCC(F)F)cn12` [Example 74, 6-[[3-(2,2-difluoroethoxy)-5-fluoro-2-pyridyl]oxy]-3-methyl-N-(3-methyl-1,1-dioxo-thietan-3-yl)imidazo[1,2-a]pyridine-2-carboxamide] showed an IC50 of 6.7 nM. With `Cc1c(C(=O)NC2(C)CCS(=O)(=O)CC2)nc2ccc(Oc3ncc(F)cc3OCC(C)(F)F)cn12` [Example 94, 6-[[3-(2,2-difluoropropoxy)-5-fluoro-2-pyridyl]oxy]-3-methyl-N-(4-methyl-1,1-dioxo-thian-4-yl)imidazo[1,2-a]pyridine-2-carboxamide] the IC50 was 12 nM. Compound `Cc1cc2nc(C(=O)NC3(C)CCS(=O)(=O)CC3)cn2cc1Oc1ncc(Cl)cc1OCC(F)(F)F` [Example 30, 6-[[5-chloro-3-(2,2,2-trifluoroethoxy)-2-pyridyl]oxy]-7-methyl-N-(4-methyl-1,1-dioxo-thian-4-yl)imidazo[1,2-a]pyridine-2-carboxamide] has an IC50 of 6.2 nM. `CCOc1cccnc1Oc1ccc2nc(C(=O)Nc3ccc(C)nn3)cn2c1` [Example 57, 6-[(3-ethoxy-2-pyridyl)oxy]-N-(6-methylpyridazin-3-yl)imidazo[1,2-a]pyridine-2-carboxamide] showed an IC50 of 1110 nM. With `Cc1c(C(=O)NC2(C)CCS(=O)(=O)CC2)nc2ccc(Oc3ncc(C(=O)O)cc3OCC(F)(F)F)cn12` [Example 151, 6-[3-methyl-2-[(4-methyl-1,1-dioxo-thian-4-yl)carbamoyl]imidazo[1,2-a]pyridine-6-yl]oxy-5-(2,2,2-trifluoroethoxy)pyridine-3-carboxylic acid] the IC50 was > 9990 nM. With `Cc1c(Oc2ncccc2OCC(F)(F)F)ccc2nc(C(=O)NC3(C)CCS(=O)(=O)CC3)cn12` [Example 36, 5-methyl-N-(4-methyl-1,1-dioxo-thian-4-yl)-6-[[3-(2,2,2-trifluoroethoxy)-2-pyridyl]oxy]imidazo[1,2-a]pyridine-2-carboxamide] the IC50 was 30 nM. Compound `Cc1c(C(=O)NC2(C)CCS(=O)(=O)CC2)nc2ccc(Oc3nccc(Cl)c3OCC(F)(F)F)cn12` [Example 109, 6-[[4-chloro-3-(2,2,2-trifluoroethoxy)-2-pyridyl]oxy]-3-methyl-N-(4-methyl-1,1-dioxo-thian-4-yl)imidazo[1,2-a]pyridine-2-carboxamide] has an IC50 of 224 nM. With `CC1(NC(=O)c2cn3nc(Oc4ncc(F)cc4OCC4(F)CC4)ccc3n2)CCS(=O)(=O)CC1` [Example 155, 6-[[5-Fluoro-3-[(1-fluorocyclopropyl)methoxy]-2-pyridyl]oxy]-N-(4-methyl-1,1-dioxo-thian-4-yl)imidazo[1,2-b]pyridazine-2-carboxamide] the IC50 was 186 nM. With `O=C(NC1CCOc2c(F)cc(F)cc21)c1cn2cc(Oc3ncccc3OCC(F)(F)F)ccc2n1` (centres unmarked) [Example 51, N-(6,8-difluorochroman-4-yl)-6-[[3-(2,2,2-trifluoroethoxy)-2-pyridyl]oxy]imidazo[1,2-a]pyridine-2-carboxamide] the IC50 was 123 nM. `CCC1(NC(=O)c2nc3ccc(Oc4nccnc4OCC(F)(F)F)cn3c2C)CCS(=O)(=O)CC1` [Example 106, N-(4-ethyl-1,1-dioxo-thian-4-yl)-3-methyl-6-[3-(2,2,2-trifluoroethoxy)pyrazin-2-yl]oxy-imidazo[1,2-a]pyridine-2-carboxamide] was tested, and the IC50 was 638 nM. In the case of `CC1(NC(=O)c2cn3nc(OCc4c(F)cccc4OC(F)F)ccc3n2)CCS(=O)(=O)CC1` [Example 181, 6-[[2-(Difluoromethoxy)-6-fluoro-phenyl]methoxy]-N-(4-methyl-1,1-dioxo-thian-4-yl)imidazo[1,2-b]pyridazine-2-carboxamide], the IC50 is reported as 25 nM. Compound `CC(C)c1cc2nc(C(=O)NC3(C)CCS(=O)(=O)CC3)cn2cc1Oc1ncccc1OCC(F)(F)F` [Example 48, 7-isopropyl-N-(4-methyl-1,1-dioxo-thian-4-yl)-6-[[3-(2,2,2-trifluoroethoxy)-2-pyridyl]oxy]imidazo[1,2-a]pyridine-2-carboxamide] has an IC50 of 59 nM. `COc1c(C(=O)NC2(C)CCS(=O)(=O)CC2)nc2ccc(Oc3ncccc3OCC(F)(F)F)cn12` [Example 134, 3-methoxy-N-(4-methyl-1,1-dioxo-thian-4-yl)-6-[[3-(2,2,2-trifluoroethoxy)-2-pyridyl]oxy]imidazo[1,2-a]pyridine-2-carboxamide] gave an IC50 of 6.2 nM. Work on `Cc1c(C(=O)NC2(C)CCS(=O)(=O)CC2)nc2ccc(Oc3ncc(Cl)cc3OCC(F)F)nn12` [Example 166, 6-((5-Chloro-3-(2,2-difluoroethoxy)pyridin-2-yl)oxy)-3-methyl-N-(4-methyl-1,1-dioxidotetrahydro-2H-thiopyran-4-yl)imidazo[1,2-b]pyridazine-2-carboxamide] yielded an IC50 of 6.8 nM. Work on `Cc1c(C(=O)NC2(CC(F)(F)F)CCCOC2)nc2ccc(Oc3ncccc3OCC(F)(F)F)cn12` (centres unmarked) [Example 112, 3-methyl-6-[[3-(2,2,2-trifluoroethoxy)-2-pyridyl]oxy]-N-[3-(2,2,2-trifluoroethyl)tetrahydropyran-3-yl]imidazo[1,2-a]pyridine-2-carboxamide] yielded an IC50 of 3380 nM. For `CCC1(NC(=O)c2nc3ccc(Oc4ncc(F)cc4OCC(F)F)cn3c2C)CS(=O)(=O)C1` [Example 70, 6-[[3-(2,2-difluoroethoxy)-5-fluoro-2-pyridyl]oxy]-N-(3-ethyl-1,1-dioxo-thietan-3-yl)-3-methyl-imidazo[1,2-a]pyridine-2-carboxamide], the IC50 was 74.3 nM. For `Cc1c(C(=O)NC2(C)CCS(=O)(=O)CC2)nc2ccc(Oc3ncc(F)cc3OCC3(F)CC3)cn12` [Example 68], the IC50 was 0.8 nM.
